# Measured values taken from patent US20090124672A1 (priority 2007, published 2009).
# Columns and labels:
# [1] = biological target: T1, hALDH2 (recombinant human mitochondria ALDH) (Homo sapiens, UniProt P05091); assay: ALDH2 inhibition assay (NADH formation, formaldehyde substrate); assay type: biochemical; settings: for inhibition at 1 µM: read-out: hALDH2 inhibition (IC50 hALDH2 column)
# T1 sequence (P05091 18-517): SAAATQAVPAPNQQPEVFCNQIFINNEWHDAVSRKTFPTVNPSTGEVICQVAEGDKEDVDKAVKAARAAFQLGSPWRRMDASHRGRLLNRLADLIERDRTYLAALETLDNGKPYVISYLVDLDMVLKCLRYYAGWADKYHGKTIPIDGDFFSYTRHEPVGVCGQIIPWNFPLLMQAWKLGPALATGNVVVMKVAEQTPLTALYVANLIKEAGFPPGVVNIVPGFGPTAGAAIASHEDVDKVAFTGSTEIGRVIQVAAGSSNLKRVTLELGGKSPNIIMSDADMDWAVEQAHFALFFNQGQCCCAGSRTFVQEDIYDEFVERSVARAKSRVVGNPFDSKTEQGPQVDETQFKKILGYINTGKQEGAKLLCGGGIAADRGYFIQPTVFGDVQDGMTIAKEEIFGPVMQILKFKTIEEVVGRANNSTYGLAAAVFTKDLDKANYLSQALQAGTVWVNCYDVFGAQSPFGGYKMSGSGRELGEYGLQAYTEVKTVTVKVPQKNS
# Method in brief: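 1 nM enzyme in 50 mM sodium phosphate pH 7.4 with 1.2 mM NAD+ and compound at 0.03–1000 nM; reaction started with 0.15 mM formaldehyde at 25 °C. NADH formation followed by fluorescence (ex 340/em 460 nm). IC50 from sigmoidal fits with floating Hill slope; apparent Ki from Morrison equation if tight binding.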
# hMAO-B = biological target: T2, hMAO-B (Homo sapiens, UniProt P27338); assay: MAO-B inhibition assay (Amplex Red, horseradish peroxidase-coupled); assay type: biochemical; settings: at 10 μM; for inhibition at 10 µM: read-out: hMAO-B inhibition (IC50 hMAO-B)
# T2 construct: purchased Sigma M7441
# T2 sequence (P27338 1-520): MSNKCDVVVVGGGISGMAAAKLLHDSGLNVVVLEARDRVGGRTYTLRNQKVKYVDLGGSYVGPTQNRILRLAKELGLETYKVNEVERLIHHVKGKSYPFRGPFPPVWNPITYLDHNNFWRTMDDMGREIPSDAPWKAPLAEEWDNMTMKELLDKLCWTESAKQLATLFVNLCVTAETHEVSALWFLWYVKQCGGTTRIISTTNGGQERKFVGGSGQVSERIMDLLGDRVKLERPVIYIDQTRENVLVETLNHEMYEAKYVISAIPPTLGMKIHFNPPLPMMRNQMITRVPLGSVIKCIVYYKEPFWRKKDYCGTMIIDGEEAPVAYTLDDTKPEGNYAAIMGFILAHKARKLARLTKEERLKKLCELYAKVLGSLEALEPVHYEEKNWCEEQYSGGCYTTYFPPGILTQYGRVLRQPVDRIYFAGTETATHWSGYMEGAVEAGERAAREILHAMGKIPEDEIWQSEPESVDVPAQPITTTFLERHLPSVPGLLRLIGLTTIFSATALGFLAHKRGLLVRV
# Experimental: MAO-A (Sigma M7316) and MAO-B (Sigma M7441) inhibition assays were conducted in 96-well micro-plates according to the method described by Zhou et al. [Analytical Biochemistry 253, 169-174, 1997]. Both assays were performed in potassium phosphate buffer (0.1 M, pH 7.5) containing 0.5 mM tyramine (Sigma T2879), 0.12 mM N-acetyl-3,7-dihydrophenoxazine (Amplex Red, Invitrogen A12222), 1.2 unit/ml horseradish peroxidase (Sigma P2088), 0.6 unit/ml MAO-A or 2.5 unit/ml MAO-B, and various concentrations of test compounds (0.1 nM to 10 uM). Reactions were initiated by the addition of a pre-mixed solution of tyramine, horseradish peroxidase and Amplex Red, and were allowed to proceed at 37° C. for 30 min. Enzyme activities were determined by measuring absorbance at 570 nm (SpectralMax Plate reader), absorbance of oxidized Amplex Red generated by this horseradish peroxidase-coupled reaction. Nonspecifically formed products were determined in the presence of 2 and 10 µM clorgyline and deprenyl for MAO-A and MAO-B, respectively. IC50 values were determined by fitting concentration-inhibition data to sigmoidal dose-response curves with two-floating parameters: IC50 and Hill coefficient.
IC50 [1],inhibition at 10 µM (hMAO-B),hMAO-B inhibition (IC50 hMAO-B) (hMAO-B),inhibition at 1 µM [1],Structure (SMILES)
670 nM,–,24%,–,"O=c1c(-c2ccc(O)cc2)coc2cc(OCCc3cccc(C(F)(F)F)c3)ccc12 [PT-59, 3-(4-hydroxyphenyl)-7-{[3-(trifluoromethyl)phenyl]ethoxy}chromen-4-one]"
42 nM,13%,–,–,"O=c1c(-c2ccc(O)cc2)coc2cc(OCc3nnc(-c4cccc(C(F)(F)F)c4)o3)ccc12 [PT-60, 3-(4-hydroxyphenyl)-7-({5-[3-(trifluoromethyl)phenyl](1,3,4-oxadiazol-2-yl)}methoxy)chromen-4-one]"
–,8%,–,43%,"O=c1c(-c2ccc(O)cc2)coc2cc(OCc3nnc(-c4ccccc4Cl)s3)ccc12 [PT-64, 7-{[5-(2-chlorophenyl)(1,3,4-thiadiazol-2-yl)]methoxy}-3-(4-hydroxyphenyl)chromen-4-one]"
–,25%,–,30%,"Cc1nc(-c2ccc(C(F)(F)F)cc2)sc1COc1ccc2c(=O)c(-c3ccc(C#N)cc3)coc2c1 [PT-65, 4-[7-({4-methyl-2-[4-(trifluoromethyl)phenyl](1,3-thiazol-5-yl)}methoxy)-4-oxochromen-3-yl]benzenecarbonitrile]"
–,25%,–,48%,"Cc1nc(-c2ccc(C(F)(F)F)cc2)sc1COc1ccc2c(=O)c(-c3ccc(NS(C)(=O)=O)cc3)coc2c1 [PT-66, 3-{4-[(methylsulfonyl)amino]phenyl}-7-({4-methyl-2-[4-(trifluoromethyl)phenyl](1,3-thiazol-5-yl)}methoxy)chromen-4-one]"
–,16%,–,25%,"COc1ccc(-c2coc3cc(OCc4sc(-c5ccc(C(F)(F)F)cc5)nc4C)ccc3c2=O)cn1 [PT-67, 3-(6-methoxy(3-pyridyl))-7-({4-methyl-2-[4-(trifluoromethyl)phenyl](1,3-thiazol-5-yl)}methoxy)chromen-4-one]"
–,14%,–,33%,"N#Cc1ccc(-c2coc3cc(OCc4nnc(-c5cc(F)cc(C(F)(F)F)c5)o4)ccc3c2=O)cc1 [PT-68, 4-[7-({5-[5-fluoro-3-(trifluoromethyl)phenyl](1,3,4-oxadiazol-2-yl)}methoxy)-4-oxochromen-3-yl]benzenecarbonitrile]"
–,11%,–,20%,"CS(=O)(=O)Nc1ccc(-c2coc3cc(OCc4noc(-c5cc(F)cc(C(F)(F)F)c5)n4)ccc3c2=O)cc1 [PT-70, 7-({5-[3-fluoro-5-(trifluoromethyl)phenyl](1,2,4-oxadiazol-3-yl)}methoxy)-3-{4-[(methylsulfonyl)amino]phenyl}chromen-4-one]"
–,11%,–,8%,"CS(=O)(=O)c1ccc(-c2coc3cc(OCc4noc(-c5cc(F)cc(C(F)(F)F)c5)n4)ccc3c2=O)cc1 [PT-71, 7-({5-[3-fluoro-5-(trifluoromethyl)phenyl](1,2,4-oxadiazol-3-yl)}methoxy)-3-[4-(methylsulfonyl)phenyl]chromen-4-one]"
5 nM,22%,–,–,"O=c1c(-c2ccc(O)cc2)coc2cc(OCc3nnc(-c4cc(F)cc(C(F)(F)F)c4)o3)ccc12 [PT-74, 7-({5-[3-fluoro-5-(trifluoromethyl)phenyl](1,3,4-oxadiazol-2-yl)}methoxy)-3-(4-hydroxyphenyl)chromen-4-one]"
0.4 nM,12%,–,–,"O=c1c(-c2ccc(O)cc2)coc2cc(OCc3nnc(-c4ccc(F)cc4)o3)ccc12 [PT-81, 7-{[5-(4-fluorophenyl)(1,3,4-oxadiazol-2-yl)]methoxy}-3-(4-hydroxyphenyl)chromen-4-one]"
5 nM,15%,–,–,"O=c1c(-c2ccc(O)cc2)coc2cc(OCc3ccncc3)ccc12 [PT-82, 3-(4-hydroxyphenyl)-7-(4-pyridylmethoxy)chromen-4-one]"
15 nM,20%,–,–,"O=C(COc1ccc2c(=O)c(-c3ccc(O)cc3)coc2c1)Nc1ccccc1C(F)(F)F [PT-84, 2-[3-(4-hydroxyphenyl)-4-oxochromen-7-yloxy]-N-[2-(trifluoromethyl)phenyl]-acetamide]"
6 nM,12%,–,–,"C[C@@H](NC(=O)COc1ccc2c(=O)c(-c3ccc(O)cc3)coc2c1)c1ccc(F)cc1 [PT-90, N-[(1R)-1-(4-fluorophenyl)ethyl]-2-[3-(4-hydroxyphenyl)-4-oxochromen-7-yloxy]acetamide]"
8 nM,29%,–,–,"C[C@H](NC(=O)COc1ccc2c(=O)c(-c3ccc(O)cc3)coc2c1)c1ccc(F)cc1 [PT-103, N-[(1S)-1-(4-fluorophenyl)ethyl]-2-[3-(4-hydroxyphenyl)-4-oxochromen-7-yloxy]acetamide]"

# The next lines start with the compound.
Structure (SMILES),IC50 [1],inhibition at 10 µM (hMAO-B),hMAO-B inhibition (IC50 hMAO-B) (hMAO-B),inhibition at 1 µM [1]
"C[C@@H](NCC(=O)COc1ccc2c(=O)c(-c3ccc(O)cc3)coc2c1)c1ccc(F)cc1 [PT-56, 7-(3-{[(1R)-1-(4-fluorophenyl)ethyl]amino}-2-oxopropoxy)-3-(4-hydroxyphenyl)chromen-4-one]",8 nM,29%,–,–
"O=c1c(-c2ccc(O)cc2)coc2cc(OCCCc3ccccc3)ccc12 [PT-57, 3-(4-hydroxyphenyl)-7-(3-phenylpropoxy)chromen-4-one]",20 nM,27%,27%,–
"O=c1c(-c2ccc(O)cc2)coc2cc(OCc3nnc(-c4cccc(F)c4)o3)ccc12 [PT-58, 7-{[5-(3-fluorophenyl)(1,3,4-oxadiazol-2-yl)]methoxy}-3-(4-hydroxyphenyl)chromen-4-one]",11 nM,25%,–,–
"O=c1c(-c2ccc(O)cc2)coc2cc(OCc3cnc(-c4ccccc4)o3)ccc12 [PT-61, 3-(4-hydroxyphenyl)-7-[(2-phenyl(1,3-oxazol-5-yl))methoxy]chromen-4-one]",96 nM,17%,–,–
"CC(=O)c1cccc(-c2coc3cc(OCc4noc(-c5cc(F)cc(C(F)(F)F)c5)n4)ccc3c2=O)c1 [PT-73, 3-(3-acetylphenyl)-7-({5-[3-fluoro-5-(trifluoromethyl)phenyl](1,2,4-oxadiazol-3-yl)}methoxy)chromen-4-one]",–,10%,–,18%
"O=c1c(-c2ccc(O)cc2)coc2cc(OCCc3ccccc3)ccc12 [PT-87, 3-(4-hydroxyphenyl)-7-(2-phenylethoxy)chromen-4-one]",–,21%,–,0.04%
"O=c1c(-c2ccc(O)cc2)coc2cc(OCCOc3ccc(Cl)cc3)ccc12 [PT-89, 7-[2-(4-chlorophenoxy)ethoxy]-3-(4-hydroxyphenyl)chromen-4-one]",22 nM,32%,–,–
"O=c1c(-c2ccc(O)cc2)coc2cc(OCc3ccccn3)ccc12 [PT-91, 3-(4-hydroxyphenyl)-7-(2-pyridylmethoxy)chromen-4-one]",7 nM,11%,–,–
"COC(=O)c1coc(COc2ccc3c(=O)c(-c4ccc(O)cc4)coc3c2)n1 [PT-101, methyl 2-{[3-(4-hydroxyphenyl)-4-oxochromen-7-yloxy]methyl}-1,3-oxazole-4-carboxylate]",5 nM,34%,–,–
"O=c1c(-c2ccc(O)cc2)coc2cc(OC[C@H](O)Cc3ccccc3)ccc12 [PT-109, 7-((2R)-2-hydroxy-3-phenylpropoxy)-3-(4-hydroxyphenyl)chromen-4-one]",14 nM,26%,–,–
